# Source: patent US8288374B2, “Medicinal composition containing benzo[a]phenoxazine compound as the active ingredient for prevention or treatment of protozoal disease” (Hoshi University, priority 2008, dated 2012)
# Read-outs that look alike come from different tables or passages of the source.
# Assays:
# Rat L6 cells = experiment: Growth inhibition test of rat L6 cells; assay type: cell-based
# Description: Rat derived-L6 cells (rat skeletal myoblast cell) were used. A medium, RPMI1640 medium was supplemented so that L-glutamin (200 mM) is 1%, and fetal bovine serum 10%, and the medium was cultured under CO2 concentration 5%, at 37° C.
# The compounds of the present invention and the control drugs to be used in the test were dissolved in DMSO, to make a test solution of a predetermined concentration.
# Pre-culture was conducted and medium containing cells which have entered the logarithmic growth phase was taken to wells of a 96-well culture plate. Then, a test solution containing drug of a predetermined concentration or a drug-free DMSO was added. Test solutions were taken by duplicates.
# Culture plate was cultured for 72 hours in an incubator, to test the growth inhibition activity. Test was conducted as follows. 10 μL of Alamar Blue aqueous solution was added to each well, and the resultant was further cultured for 2 hours. Next, the culture plate was placed on a fluorescent micro-plate reader (Spectramax Gemeni XS; US Molecular Device), radiated at an excited wavelength of 536 nm. Fluorescent intensity was measured at 588 nm, and residual rate of L6 cells of the test solution added group, and that of the control was calculated.
# Growth inhibition rate (%)={(C−A)/(B−A)}×100 • A: Primary cell count • B: cell count of control, 3 days after • C: cell count of wells added with a sample, 3 days after 4. Determination of Drug Efficacy Against Chloroquine Resistant-Plasmodium
# [1] = test system: Plasmodium berghei NK65 strain; experiment: Cure test by oral administration to mice infected with malaria; assay type: in vivo; conditions: for inhibition in vivo at 100 mg/kg: Plasmodium berghei, infected ICR mice, suppression vs control; for inhibition in vivo at 100 mg/kg / Days of survival: oral, 1 dose, 100 mg/kg; for Days of survival: mean days to death minus that of control mice; for Effectiveness in the in vivo malaria test, in words: oral administration to mice infected with rodent malaria
# Description: In this experiment, rodent malaria parasites (the Plasmodium berghei NK65 strain) were used.
# The infected blood to be used was subcultured in ICR female SPF mice infected by intraperitoneal or tail vein administration at 4 to 6 weeks old (20 to 26 g). […] Thereafter, based on the number of red cells (cells/ml) and the rate of infection by the protozoans, the blood was diluted with phys'iological saline such that a density of […] malaria parasites/1 ml dose was attained. This was used for infection of uninfected mice (ICR female mice, 5 weeks old) in an amount of 0.2 ml/20 g body weight, through the tail vein (Day-0). The compound used in the test was dissolved in 10% DMSO solution (a mixture of 1 ml of DMSO and 9 ml of 5% glucose solution).
# Each group contained 4 mice, and the compound was orally administered to the mice 24 hours after their infection with malaria (Day-1), in an amount calculated such that 100 mg of the compound was administered per 1 kg of the body weight of a mouse. On the other hand, in terms of cases in which the amount was calculated such that 30 mg of the compound was administered per 1 kg of the body weight of a mouse, the oral administration was carried out a total of three times, that is, 24 hours (Day-1), 48 hours (Day-2) and 72 hours (Day-3) after the infection of malaria.
# Blood was collected from the tails of each mouse 96 hours (Day-4) and 144 hours (Day-6) after the infection with malaria, and thin blood films were prepared. Under the microscope, the numbers of infection of malaria parasites in the group to which the compound was administered and the control group (to which the compound was not administered) were measured, and the rates of infection with malaria parasites (Parasitemia) were calculated.
# From the rate of infection with malaria parasites calculated as above, the cure rate (Suppression) in the case of administration of the drug was calculated according to the following equation. Cure rate: Suppression (%)=(B−A)/B×100
# A: Rate of infection with the protozoans in a mouse to which the present test compound was administered
# B: Rate of infection with the parasites in a control mouse (to which the compound was not administered) Days of survival: MSD (day)=C−D
# C: the average number of days from the date of infection with malaria to the date of death in the mice to which the present test compound was administered
# D: The average number of days from the date of infection with malaria to the date of death in the 4 individuals of control mice (to which the compound was not administered)
# Further, by observation of changes in the body weight, hair glossiness and the like of each mouse, side effects such as acute toxicity due to administration of the compound were evaluated.
# [2] = test system: Trypanosoma cruzi (Tulahuen C2C4 strain); experiment: American trypanosome protozoa growth inhibition screening test; assay type: cell-based
# Description: In the present experiment, amastigote and trypomastigote infected with rat L6 cells of protozoa of Trypanosoma cruzi (Tulahuen C2C4 starin) were used. As medium used in the test, RPMI 1640 medium containing L6 cells was supplemented so that L-glutamine (200 mM) become 1%, fetal bovine serum becomes 10%, which was cultured under CO2 concentration 5%, at 37° C.
# The compounds of the present invention to be used in the present test and the positive control drug (benznidazole) were dissolved in DMSO to make a test solution of a predetermined concentration.
# A medium containing 5×10^3 protozoa was added to wells of a 96-well culture plate, and pre-cultured for 48 hours. After replacing the medium, test solution containing drug of a predetermined concentration or a drug-free DMSO was added. Test solutions were taken by duplicates.
# After culturing the culture plate in an incubator for 96 hours, growth inhibition activity was tested. Test was conducted as follows. 50 μL of CPRG/Nonidet was added to each well, and allowed to rest for 2 to 6 hours. Next, the culture plate was placed on a fluorescent micro-plate reader. The absorbance was measured at 540 nm, and the trypanosome infection rate of the test solution added group and control group were calculated.
# Growth inhibition rate (%)={1−(b−a)/(c−a)}×100 • a: early infection rate • b: infection rate when test solution was added • c: infection rate of the control
# [3] = 96 h, read-out: Cure rate (%) Day-4
# [4] = 144 h, read-out: Cure rate (%) Day-6
# [5] = Table 2, unit inferred, 72 hours, read-out: Cytoxicity L6
# [6] = Table 6, unit inferred, read-out: Trypanosoma cruzi
SMILES,"EC50 (Rat L6 cells; Table 1, 72 hours, Alamar Blue, read-out: 50% Growth inhibition concentration Cytoxicity L6) [µg/mL]","inhibition in vivo at 100 mg/kg [1, 3] [%]","inhibition in vivo at 100 mg/kg [1, 4] [%]",Days of survival [1] [days],"EC50 ([2]; Trypanosoma cruzi, Table 5, in rat L6 cells, 96 hours, CPRG/Nonidet, read-out: 50% Growth inhibition concentration Trypanosoma cruzi) [µg/mL]",EC50 (Rat L6 cells; [5]) [µg/mL],"Effectiveness in the in vivo malaria test, in words [1]","EC50 [2, 6] [µg/mL]"
"CCN(CC)c1ccc2nc3c4ccccc4c(=Nc4ccc5ccccc5n4)cc-3oc2c1 [Compound 1H, N,N-Diethyl-5-(quinolin-2-ylimino)-5H-benzo[a]phenoxazin-9-amine]",30.1,81,71,4.3,3.31,–,–,–
"CCN(CCNS(C)(=O)=O)c1cc(C)c2nc3c4ccccc4c(=Nc4ccncc4)cc-3oc2c1 [Compound 1R, N-Ethyl-N-(2-methansulfonamidylethyl)-11-methyl-5-(pyridine-4-ylimino)-5H-benzo[a]phenoxazin-9-amine]",–,100,95.7,15.7,–,7.97,excellent cure effects,2.01
"CCN(CCNS(C)(=O)=O)c1cc(C)c2nc3c4ccccc4c(=Nc4ccccn4)cc-3oc2c1 [Compound 1S, N-Ethyl-N-(2-methansulfonamidylethyl)-11-methyl-5-(pyridine-2-ylimino)-5H-benzo[a]phenoxazin-9-amine]",–,100,100,11.3,–,0.307,excellent cure effects,0.376
